Assay [1] deals with T1, Replicative DNA helicase DnaB (Mycobacterium tuberculosis, UniProt P9WMR3).
T1 sequence (P9WMR3 whole entry): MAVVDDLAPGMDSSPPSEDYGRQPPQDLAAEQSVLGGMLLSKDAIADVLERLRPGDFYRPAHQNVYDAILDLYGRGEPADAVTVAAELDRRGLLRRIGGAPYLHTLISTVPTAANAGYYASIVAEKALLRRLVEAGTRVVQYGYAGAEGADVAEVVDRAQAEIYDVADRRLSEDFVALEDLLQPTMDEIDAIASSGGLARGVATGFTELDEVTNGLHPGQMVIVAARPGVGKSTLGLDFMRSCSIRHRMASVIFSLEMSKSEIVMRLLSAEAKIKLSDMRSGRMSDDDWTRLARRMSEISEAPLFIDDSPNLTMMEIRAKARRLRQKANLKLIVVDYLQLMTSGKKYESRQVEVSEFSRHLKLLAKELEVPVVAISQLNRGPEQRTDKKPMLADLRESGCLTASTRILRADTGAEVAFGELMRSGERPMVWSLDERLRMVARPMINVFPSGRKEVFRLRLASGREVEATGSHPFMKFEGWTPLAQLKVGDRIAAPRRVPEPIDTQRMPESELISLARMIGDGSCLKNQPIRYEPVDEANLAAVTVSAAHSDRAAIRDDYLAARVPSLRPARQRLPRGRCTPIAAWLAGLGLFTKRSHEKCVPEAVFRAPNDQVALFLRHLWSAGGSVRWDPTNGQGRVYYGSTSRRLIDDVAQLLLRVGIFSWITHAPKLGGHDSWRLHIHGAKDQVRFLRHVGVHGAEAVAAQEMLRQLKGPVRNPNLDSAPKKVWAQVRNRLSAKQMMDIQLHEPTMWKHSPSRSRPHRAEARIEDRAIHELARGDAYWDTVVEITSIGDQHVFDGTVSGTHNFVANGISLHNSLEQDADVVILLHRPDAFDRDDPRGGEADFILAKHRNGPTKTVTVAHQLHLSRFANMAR
Put plainly: DnaB intein splicing inhibitors, dose response, biochemical, cell-free fluorescence (AID 449749). It is filed as functional.

In assay [2] the target is MAP kinase-interacting serine/threonine-protein kinase 2 (Homo sapiens, UniProt Q9HBH9). In kind it is functional.
Chain of MAP kinase-interacting serine/threonine-protein kinase 2 (Q9HBH9 whole entry, canonical isoform): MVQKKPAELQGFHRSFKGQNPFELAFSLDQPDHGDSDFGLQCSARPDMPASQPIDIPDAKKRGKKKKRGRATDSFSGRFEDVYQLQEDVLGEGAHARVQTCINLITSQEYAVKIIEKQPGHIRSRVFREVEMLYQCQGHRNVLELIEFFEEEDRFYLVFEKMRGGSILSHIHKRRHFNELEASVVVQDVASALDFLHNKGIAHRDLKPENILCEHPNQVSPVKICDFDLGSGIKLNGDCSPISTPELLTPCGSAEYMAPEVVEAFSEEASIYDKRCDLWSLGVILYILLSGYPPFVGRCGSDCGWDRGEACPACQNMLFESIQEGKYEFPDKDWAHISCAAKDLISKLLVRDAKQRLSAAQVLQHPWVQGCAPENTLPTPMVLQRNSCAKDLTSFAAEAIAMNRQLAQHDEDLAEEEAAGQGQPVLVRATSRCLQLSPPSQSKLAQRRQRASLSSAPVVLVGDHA
The target of assay [3] is Casein kinase I isoform gamma-1 (Homo sapiens, UniProt Q9HCP0). In kind it is functional.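 Further: measured as the CSNK1G1 member of a kinome profiling panel.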
Chain of Casein kinase I isoform gamma-1 (Q9HCP0 whole entry, canonical isoform): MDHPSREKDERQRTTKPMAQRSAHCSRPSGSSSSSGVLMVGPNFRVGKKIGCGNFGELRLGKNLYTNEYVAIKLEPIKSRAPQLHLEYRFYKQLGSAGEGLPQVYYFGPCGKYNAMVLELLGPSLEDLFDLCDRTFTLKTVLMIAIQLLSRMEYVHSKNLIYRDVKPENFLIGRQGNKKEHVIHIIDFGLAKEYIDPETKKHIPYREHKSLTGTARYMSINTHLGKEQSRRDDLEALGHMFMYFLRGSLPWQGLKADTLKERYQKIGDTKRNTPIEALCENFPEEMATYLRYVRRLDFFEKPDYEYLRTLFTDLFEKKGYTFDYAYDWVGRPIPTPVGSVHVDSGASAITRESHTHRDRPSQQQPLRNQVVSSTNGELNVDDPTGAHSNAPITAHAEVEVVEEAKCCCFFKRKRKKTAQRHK
The target in assay [4] is Non-receptor tyrosine-protein kinase TYK2 (Homo sapiens, UniProt P29597). It is filed as functional.
Chain of Non-receptor tyrosine-protein kinase TYK2 (P29597 whole entry): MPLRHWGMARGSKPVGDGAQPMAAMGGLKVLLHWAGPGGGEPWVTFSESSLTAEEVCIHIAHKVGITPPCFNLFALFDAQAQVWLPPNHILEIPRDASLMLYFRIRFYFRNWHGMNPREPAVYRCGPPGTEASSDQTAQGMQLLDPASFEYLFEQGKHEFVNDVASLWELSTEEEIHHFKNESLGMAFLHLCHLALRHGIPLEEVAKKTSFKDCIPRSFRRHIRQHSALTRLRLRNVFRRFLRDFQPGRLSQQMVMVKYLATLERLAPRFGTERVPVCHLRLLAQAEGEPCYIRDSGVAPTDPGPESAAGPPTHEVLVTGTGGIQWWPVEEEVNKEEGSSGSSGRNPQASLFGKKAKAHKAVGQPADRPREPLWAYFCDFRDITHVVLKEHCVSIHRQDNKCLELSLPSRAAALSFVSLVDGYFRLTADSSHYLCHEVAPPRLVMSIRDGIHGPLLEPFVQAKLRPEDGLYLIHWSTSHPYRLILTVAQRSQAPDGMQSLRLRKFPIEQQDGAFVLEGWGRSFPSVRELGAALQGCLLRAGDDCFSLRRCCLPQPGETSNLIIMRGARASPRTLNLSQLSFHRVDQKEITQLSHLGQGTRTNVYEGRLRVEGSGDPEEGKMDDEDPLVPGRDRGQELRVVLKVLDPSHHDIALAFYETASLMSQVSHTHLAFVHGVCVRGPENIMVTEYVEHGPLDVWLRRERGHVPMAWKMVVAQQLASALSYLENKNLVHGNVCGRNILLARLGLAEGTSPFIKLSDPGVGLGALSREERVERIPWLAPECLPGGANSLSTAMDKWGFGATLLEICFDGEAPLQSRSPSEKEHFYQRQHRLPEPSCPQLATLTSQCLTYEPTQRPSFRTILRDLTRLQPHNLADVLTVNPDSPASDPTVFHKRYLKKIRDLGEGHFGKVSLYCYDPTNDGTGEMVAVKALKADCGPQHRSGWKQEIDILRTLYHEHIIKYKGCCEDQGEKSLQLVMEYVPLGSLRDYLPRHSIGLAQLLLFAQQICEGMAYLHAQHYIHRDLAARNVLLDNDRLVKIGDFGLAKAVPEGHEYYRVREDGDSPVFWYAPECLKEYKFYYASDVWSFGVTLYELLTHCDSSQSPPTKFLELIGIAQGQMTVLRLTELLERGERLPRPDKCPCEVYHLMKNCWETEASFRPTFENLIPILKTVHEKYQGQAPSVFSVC
Assay [5] addresses Serine/threonine-protein kinase D2 (Homo sapiens, UniProt Q9BZL6). It is filed as functional.
The target in assay [6] is Proto-oncogene tyrosine-protein kinase Src (Homo sapiens, UniProt P12931). In kind it is functional.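 Further: SRC entry within a kinome-wide kinase profiling panel.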
For assay [7], the target named is 3-phosphoinositide-dependent protein kinase 1 (Homo sapiens, UniProt O15530). It is filed as functional.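 Further: value comes from the Navigating the Kinome panel, PDPK1 member.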
The target of assay [8] is Mitogen-activated protein kinase kinase kinase 20 (Homo sapiens, UniProt Q9NYL2). It is filed as functional.
Chain of Mitogen-activated protein kinase kinase kinase 20 (Q9NYL2 whole entry): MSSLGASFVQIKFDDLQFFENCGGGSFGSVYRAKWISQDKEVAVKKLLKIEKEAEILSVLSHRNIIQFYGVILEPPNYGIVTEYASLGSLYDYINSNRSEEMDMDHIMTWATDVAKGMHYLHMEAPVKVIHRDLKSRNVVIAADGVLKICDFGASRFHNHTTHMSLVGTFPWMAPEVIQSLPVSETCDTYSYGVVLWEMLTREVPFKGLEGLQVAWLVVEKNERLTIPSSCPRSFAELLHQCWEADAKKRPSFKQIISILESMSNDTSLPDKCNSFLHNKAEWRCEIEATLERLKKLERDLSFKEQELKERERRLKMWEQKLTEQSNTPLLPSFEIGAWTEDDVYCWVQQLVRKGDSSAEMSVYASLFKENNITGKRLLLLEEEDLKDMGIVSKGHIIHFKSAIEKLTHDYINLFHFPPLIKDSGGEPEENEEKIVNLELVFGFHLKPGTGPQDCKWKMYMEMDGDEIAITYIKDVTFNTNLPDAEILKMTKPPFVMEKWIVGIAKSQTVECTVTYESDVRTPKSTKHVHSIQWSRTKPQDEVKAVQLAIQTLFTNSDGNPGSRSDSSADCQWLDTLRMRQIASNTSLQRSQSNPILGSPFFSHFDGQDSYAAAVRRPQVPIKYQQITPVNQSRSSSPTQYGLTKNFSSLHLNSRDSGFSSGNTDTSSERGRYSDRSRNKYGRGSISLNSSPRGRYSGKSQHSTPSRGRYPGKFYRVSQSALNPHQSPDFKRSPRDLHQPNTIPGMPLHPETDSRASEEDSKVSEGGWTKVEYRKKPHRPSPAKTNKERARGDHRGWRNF
Assay [9] deals with Tyrosine-protein kinase Srms (Homo sapiens, UniProt Q9H3Y6). It is filed as functional.
Chain of Tyrosine-protein kinase Srms (Q9H3Y6 whole entry): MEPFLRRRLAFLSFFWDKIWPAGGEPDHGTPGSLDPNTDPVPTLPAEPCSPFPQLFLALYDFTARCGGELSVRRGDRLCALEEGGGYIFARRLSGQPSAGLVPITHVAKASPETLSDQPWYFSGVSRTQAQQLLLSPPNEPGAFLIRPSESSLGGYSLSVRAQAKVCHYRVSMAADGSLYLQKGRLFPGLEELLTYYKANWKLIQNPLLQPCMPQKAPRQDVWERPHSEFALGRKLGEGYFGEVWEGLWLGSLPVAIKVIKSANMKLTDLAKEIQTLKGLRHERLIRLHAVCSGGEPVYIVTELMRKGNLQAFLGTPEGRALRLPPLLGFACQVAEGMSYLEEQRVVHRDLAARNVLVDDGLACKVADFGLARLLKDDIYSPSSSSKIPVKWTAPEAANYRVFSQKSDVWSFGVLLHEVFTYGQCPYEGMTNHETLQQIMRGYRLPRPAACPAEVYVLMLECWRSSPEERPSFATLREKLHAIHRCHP
The target of assay [10] is Mast/stem cell growth factor receptor Kit (Homo sapiens, UniProt P10721). It is filed as functional.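 Further: KIT entry within a kinase panel assay.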
Assay [11] addresses Serine/threonine-protein kinase BRSK1 (Homo sapiens, UniProt Q8TDC3). In kind it is functional.
In assay [12] the target is Tyrosine-protein kinase Fer (Homo sapiens, UniProt P16591). In kind it is functional.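 Further: FER tested as one member of a kinome panel.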
Chain of Tyrosine-protein kinase Fer (P16591 whole entry): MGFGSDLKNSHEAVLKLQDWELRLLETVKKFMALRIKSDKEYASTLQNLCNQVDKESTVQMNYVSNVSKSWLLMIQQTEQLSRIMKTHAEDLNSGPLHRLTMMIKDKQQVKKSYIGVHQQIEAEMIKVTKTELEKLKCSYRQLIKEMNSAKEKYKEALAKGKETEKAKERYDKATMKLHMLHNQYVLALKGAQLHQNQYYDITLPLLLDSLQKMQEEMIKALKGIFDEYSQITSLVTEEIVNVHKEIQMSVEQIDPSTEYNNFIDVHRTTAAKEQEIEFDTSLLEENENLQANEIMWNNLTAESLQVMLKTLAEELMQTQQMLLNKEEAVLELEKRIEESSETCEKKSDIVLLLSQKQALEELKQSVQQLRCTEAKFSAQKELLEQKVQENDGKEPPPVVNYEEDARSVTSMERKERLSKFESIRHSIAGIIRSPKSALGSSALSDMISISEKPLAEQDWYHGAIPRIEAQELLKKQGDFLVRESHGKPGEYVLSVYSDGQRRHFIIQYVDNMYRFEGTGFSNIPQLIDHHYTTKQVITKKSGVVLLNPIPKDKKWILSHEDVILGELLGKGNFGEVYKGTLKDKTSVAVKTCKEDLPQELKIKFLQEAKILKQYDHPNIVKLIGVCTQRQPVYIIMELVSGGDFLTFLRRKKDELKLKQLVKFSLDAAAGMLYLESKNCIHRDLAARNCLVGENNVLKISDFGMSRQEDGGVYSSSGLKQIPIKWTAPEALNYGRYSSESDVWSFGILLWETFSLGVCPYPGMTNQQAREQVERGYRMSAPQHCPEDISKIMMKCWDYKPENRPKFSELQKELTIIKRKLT
Assay [13] has as its target Testis-specific serine/threonine-protein kinase 2 (Homo sapiens, UniProt Q96PF2). It is filed as functional.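 Further: part of the Navigating the Kinome panel, target entry STK22B.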
A further assay concerns the target T2, Streptokinase A (Streptococcus pyogenes serotype M1, UniProt P10520).
T2 sequence (P10520 whole entry): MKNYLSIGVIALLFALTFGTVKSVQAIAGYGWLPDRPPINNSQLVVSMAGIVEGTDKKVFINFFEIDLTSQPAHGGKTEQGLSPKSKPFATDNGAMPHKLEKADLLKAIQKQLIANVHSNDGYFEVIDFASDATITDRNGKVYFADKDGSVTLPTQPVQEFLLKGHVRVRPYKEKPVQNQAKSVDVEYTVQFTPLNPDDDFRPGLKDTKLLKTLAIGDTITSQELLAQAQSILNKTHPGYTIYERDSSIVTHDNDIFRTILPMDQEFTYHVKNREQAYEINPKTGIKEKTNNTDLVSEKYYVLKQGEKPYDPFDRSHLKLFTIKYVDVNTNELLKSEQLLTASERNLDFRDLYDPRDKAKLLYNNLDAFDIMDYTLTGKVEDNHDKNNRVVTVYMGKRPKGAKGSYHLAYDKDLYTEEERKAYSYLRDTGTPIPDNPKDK
Put plainly: viability-normalized secreted streptokinase activity reduction – plasminogen activation absorbance, OD405, dose response (AID 1914).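 Further: secreted streptokinase activity via plasminogen activation per viability signal from cell pellet.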 In kind it is functional, Streptococcus pyogenes M1 GAS.

The next assay is described as follows: cells. It is filed as functional, cell-based.
A short description of assay [14]: non-specific 3'UTR reporter inhibition in Clone20-Shn3RL – cell-based, Renilla luciferase, cherry-picked, counter-screen for Shn3 inhibitor project, dose response (AID 624133). In kind it is functional. In general terms: Counterscreens check selectivity or assay interference.

Calls of active or inactive are those of the source.

The AC50 is the concentration at which the activity in the assay is half-maximal. In general, Ki refers to the dissociation constant of the complex between target and ligand, obtained from inhibition or displacement. By EC50 is commonly meant the concentration giving half of the maximal effect. The low end stands for greater potency, the high end for weaker potency.

Chain of Testis-specific serine/threonine-protein kinase 2 (Q96PF2 whole entry): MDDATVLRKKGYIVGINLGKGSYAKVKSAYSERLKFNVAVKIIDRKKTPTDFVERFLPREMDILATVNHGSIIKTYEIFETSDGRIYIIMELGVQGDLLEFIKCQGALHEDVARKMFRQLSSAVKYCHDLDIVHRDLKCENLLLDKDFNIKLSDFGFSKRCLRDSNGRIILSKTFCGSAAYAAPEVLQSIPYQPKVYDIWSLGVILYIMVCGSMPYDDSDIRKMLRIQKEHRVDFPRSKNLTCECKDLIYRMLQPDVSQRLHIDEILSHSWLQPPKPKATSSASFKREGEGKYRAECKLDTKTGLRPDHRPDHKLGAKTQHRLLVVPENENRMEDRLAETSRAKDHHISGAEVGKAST

Turning to `OCC[n+]1c2ccccc2nc2ccc(N3CCOCC3)cc21`, in assay [1], the AC50 was > 380000 nM (inactive).

Take `CS(=O)(=O)N(Cc1ccc2[nH]c(=O)c3cccn3c2c1)C1CC1`: the Ki in assay [2] was 794 nM (active); in assay [3], 631 nM (active); in [4], > 2000 nM (inactive); in assay [5], 200 nM (active); in assay [6], 1260 nM (active); in assay [7], 79.4 nM (active). In addition, the Ki is 251 nM (active) in assay [8]; 631 nM (active) in assay [9]; 251 nM (active) in assay [10]; 200 nM (active) in [11]; > 1580 nM (inactive) in [12]; 39.8 nM (active) in [13].

As to `Cc1cc(NC(c2ccc(Cl)cc2)c2ccc3cccnc3c2O)no1` (stereo unspecified), the EC50 on Streptokinase A is > 150000 nM (not active); in the assay “cells”, > 350000 nM (not active). Besides, in assay [14], the AC50 is 677 nM (active).

These data come from ChEMBL document CHEMBL1201862, “PubChem BioAssay data set” (2004).
